Measured values published in US20040038226A1, “Transgenic animal model by mineralocorticoid receptor antisense expression” (priority 2000, published 2004).

Biological target: T1, mMR (Mus musculus, UniProt Q8VII8)
T1 construct: the level of expression of the endogenous mMR observed in the control males; endogenous in cells; host or cells: whole mice in vivo: double transgenic alphaMHC-tTA/MR animals, with cardiac mMR mRNA lowered by about 50% by the antisense, and wild or single transgenic controls
T1 sequence (Q8VII8 1-978): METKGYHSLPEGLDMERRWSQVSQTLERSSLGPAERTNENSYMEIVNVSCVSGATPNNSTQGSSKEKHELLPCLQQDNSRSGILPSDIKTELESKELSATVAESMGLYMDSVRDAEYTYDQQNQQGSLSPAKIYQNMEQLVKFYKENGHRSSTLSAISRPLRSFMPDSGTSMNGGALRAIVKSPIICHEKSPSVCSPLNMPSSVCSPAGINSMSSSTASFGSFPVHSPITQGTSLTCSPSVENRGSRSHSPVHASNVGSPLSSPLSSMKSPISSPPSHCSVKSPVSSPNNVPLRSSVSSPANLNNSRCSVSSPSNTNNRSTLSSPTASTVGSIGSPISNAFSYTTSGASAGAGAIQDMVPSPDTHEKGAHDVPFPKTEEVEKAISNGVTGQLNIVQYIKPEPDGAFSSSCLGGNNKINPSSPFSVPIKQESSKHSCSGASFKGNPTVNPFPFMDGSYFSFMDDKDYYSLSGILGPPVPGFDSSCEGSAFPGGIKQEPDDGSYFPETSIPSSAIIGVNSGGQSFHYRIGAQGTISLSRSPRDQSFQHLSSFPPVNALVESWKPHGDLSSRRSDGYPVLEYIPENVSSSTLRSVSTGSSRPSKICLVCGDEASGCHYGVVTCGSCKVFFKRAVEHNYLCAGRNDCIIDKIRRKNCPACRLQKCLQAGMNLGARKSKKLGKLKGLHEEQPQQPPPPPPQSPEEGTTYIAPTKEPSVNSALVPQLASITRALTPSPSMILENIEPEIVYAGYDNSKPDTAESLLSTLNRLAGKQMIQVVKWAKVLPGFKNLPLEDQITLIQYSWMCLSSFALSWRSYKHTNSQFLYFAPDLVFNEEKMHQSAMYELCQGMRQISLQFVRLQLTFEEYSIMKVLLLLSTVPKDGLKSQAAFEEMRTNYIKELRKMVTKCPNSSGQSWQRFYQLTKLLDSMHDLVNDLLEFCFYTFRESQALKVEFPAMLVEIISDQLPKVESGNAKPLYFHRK
Assay: Administration of spironolactone to control animals (wild or single transgenic)
Assay type: in vivo, mice
Conditions: 30 mg/kg/day

## CC(=O)S[C@@H]1CC2=CC(=O)CC[C@]2(C)[C@H]2CC[C@@]3(C)[C@@H](CC[C@@]34CCC(=O)O4)[C@H]12 [spironolactone]
  functional or structural alteration of the heart: does not produce any functional or structural alteration
